According to patent US12486253B2, “Therapeutics for the degradation of mutant BRAF” (C4 THERAPEUTICS, INC., priority 2021, dated 2025):

How the values were obtained:
[1] = molecular target: RAF1 (a.k.a CRAF) (Homo sapiens, UniProt P04049); assay: Global proteomics profiling, JURKAT cells; format: cell-based; set-up: endogenous in cells; host or cells: JURKAT, ATCC TIB-152 (A12.2); settings: 300 nM, 24 hours
Description: Each cell line was treated in duplicate with either DMSO or Compound 157 (final concentration 300 nM) for 24 hours in an incubator at 37° C. with 5% CO2. After the 24-hour incubation, cells were harvested, washed twice with PBS, and snap frozen in liquid nitrogen. Samples were re-suspended in lysis buffer [8 M urea, 50 mM HEPES (pH 8.5), 50 mM NaCl, 1× protease inhibitor cocktail] and lysed by sonication at 4° C. with 85% amplitude in a pulse setting with 30 seconds on and 30 seconds off for a total sonication time of 5 minutes. Lysates were centrifuged at maximum speed for 10 minutes at 4° C. and the supernatant collected, reduced for 1 hour at room temperature with 5 mM TCEP, and the cysteine residues were then alkylated with 15 mM iodoacetamide (room temperature, in dark, 30 minutes). Protein content was extracted by methanol-chloroform precipitation and subsequent ice-cold acetone washes. Protein pellets were resuspended in 8 M urea, 50 mM HEPES (pH 8.5) buffer and protein concentrations were measured by BCA assay. […]
For peptide tandem mass tag (TMT) labeling, 100 μg of peptides per sample was prepared at […] concentration in 200 mM HEPES (pH 8.5), 30% acetonitrile (ACN) and each the specific TMT reagent. […] TMT reporter ion intensities were quantified by extracting the signal-to-noise ratio for each. […]

[2] = system: ERK phosphorylation; assay: Western blot of ERK phosphorylation in A375 cells expressing NRAS^Q61K; format: cell-based; settings: 24 hours

Sequence of RAF1 (a.k.a CRAF) (P04049 whole entry): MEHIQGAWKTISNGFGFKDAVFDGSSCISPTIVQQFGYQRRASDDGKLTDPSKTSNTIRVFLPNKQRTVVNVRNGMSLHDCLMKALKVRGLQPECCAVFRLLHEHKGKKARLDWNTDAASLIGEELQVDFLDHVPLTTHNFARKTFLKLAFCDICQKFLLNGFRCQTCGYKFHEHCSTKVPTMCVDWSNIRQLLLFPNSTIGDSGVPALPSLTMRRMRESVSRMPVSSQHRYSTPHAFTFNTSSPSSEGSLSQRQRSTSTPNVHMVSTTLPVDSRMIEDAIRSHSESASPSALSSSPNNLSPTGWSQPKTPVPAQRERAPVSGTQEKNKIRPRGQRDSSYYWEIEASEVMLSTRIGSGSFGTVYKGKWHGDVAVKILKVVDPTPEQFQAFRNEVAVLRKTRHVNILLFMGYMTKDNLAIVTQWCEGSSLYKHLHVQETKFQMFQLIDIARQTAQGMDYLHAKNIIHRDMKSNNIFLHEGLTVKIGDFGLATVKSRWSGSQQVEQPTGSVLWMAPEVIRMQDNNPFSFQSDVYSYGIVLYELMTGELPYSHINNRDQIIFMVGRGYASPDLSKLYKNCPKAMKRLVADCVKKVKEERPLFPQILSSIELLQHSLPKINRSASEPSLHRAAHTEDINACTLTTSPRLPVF

CCN(C)S(=O)(=O)Nc1ccc(F)c(Oc2ccc3ncn([C@H]4COC5(CCN(C(=O)CC6(O)CCN(c7cc8c(cc7F)c(N7CCC(=O)NC7=O)nn8C)CC6)CC5)C4)c(=O)c3c2)c1C#N [Compound 157, (3R)-3-[6-[2-cyano-3-[[ethyl(methyl)sulfamoyl]amino]-6-fluorophenoxy]-4-oxoquinazolin-3-yl]-8-[2-[1-[3-(2,4-dioxo-1,3-diazinan-1-yl)-5-fluoro-1-methylindazol-6-yl]-4-hydroxypiperidin-4-yl]acetyl]-1-oxa-8-azaspiro[4.5]decane]
RAF1 (CRAF) protein level change [1]: unchanged | ERK phosphorylation, in combination with trametinib ([2]; with 1 nM trametinib): completely suppressed | ERK phosphorylation, alone ([2]; without trametinib): can suppress MAPK signaling
